Test results as given in the supplement of paper PMC11061612.

How the values were obtained:
AZD7648 = compound: Cc1cc2ncnn2cc1Nc1ncc2c(n1)n(C1CCOCC1)c(=O)n2C [AZD7648]; details: max 10 µM
Procedure, shortened: (§1)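 Cancer cell lines were seeded in 1536-well plates in 7.5 μl DMEM/F12 or RPMI with 10% FBS, held 24 hours at 37°C and 5% CO2, then dosed for 72 hours (final DMSO typically 0.2%). Viability was read by CellTiter-Glo 2.0 luminescence and scaled between blank-well and DMSO-well means. The single-agent IC50 comes from dose responses fitted to a two-parameter logistic curve with a non-linear mixed effects model.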

AZD5363 = compound: C1CN(CCC1(C(=O)N[C@@H](CCO)C2=CC=C(C=C2)Cl)N)C3=NC=NC4=C3C=CN4 [AZD5363]; details: max 10 µM
Procedure, shortened: as §1

AZD2811 = compound: CCN(CCO)CCCOc1ccc2c(Nc3cc(CC(=O)Nc4cccc(F)c4)[nH]n3)ncnc2c1 [AZD2811]; details: max 1 µM
Procedure, shortened: as §1

AZD8186 = compound: C[C@@H](Nc1cc(F)cc(F)c1)c1cc(C(=O)N(C)C)cc2c(=O)cc(N3CCOCC3)oc12 [AZD8186]; details: max 10 µM
Procedure, shortened: as §1

SRA737 = compound: N#Cc1cnc(Nc2cc(NC[C@H]3CNCCO3)c(C(F)(F)F)cn2)cn1 [SRA737]; details: max 10 µM
Procedure, shortened: as §1

AZD0156 = compound: CN(C)CCCOc1ccc(-c2ccc3ncc4c(c3c2)n(C2CCOCC2)c(=O)n4C)cn1 [AZD0156]; details: max 3 µM
Procedure, shortened: as §1

AZD5153 = compound: COc1nnc2ccc(N3CCC(c4ccc(OCCN5CCN(C)C(=O)[C@H]5C)cc4)CC3)nn12 [AZD5153]; details: max 1 µM
Procedure, shortened: as §1

AZD4320 = compound: CN(CC[C@H](CSC1=CC=CC=C1)NC2=C(C=C(C=C2)S(=O)(=O)NC(=O)C3=CC=C(C=C3)N4CCC(CC4)[C@H](C5=CC=CC=C5C6=CC=C(C=C6)Cl)O)S(=O)(=O)C(F)(F)F)CCO [AZD4320]; details: max 1 µM
Procedure, shortened: as §1

Etoposide = compound: COc1cc([C@@H]2c3cc4c(cc3[C@@H](O[C@@H]3O[C@@H]5CO[C@@H](C)O[C@H]5[C@H](O)[C@H]3O)[C@H]3COC(=O)[C@H]23)OCO4)cc(OC)c1O [Etoposide]; details: max 10 µM
Procedure, shortened: as §1

Gefitinib = compound: COc1cc2ncnc(Nc3ccc(F)c(Cl)c3)c2cc1OCCCN1CCOCC1 [Gefitinib]; details: max 10 µM
Procedure, shortened: as §1

5-Fluorouracil = compound: O=c1[nH]cc(F)c(=O)[nH]1 [5-Fluorouracil]; details: max 20 µM
Procedure, shortened: as §1

Prexasertib = compound: COc1cccc(OCCCN)c1-c1cc(Nc2cnc(C#N)cn2)n[nH]1 [Prexasertib]; details: max 1 µM
Procedure, shortened: as §1

Olaparib = compound: O=C(c1cc(Cc2n[nH]c(=O)c3ccccc23)ccc1F)N1CCN(C(=O)C2CC2)CC1 [Olaparib]; details: max 10 µM
Procedure, shortened: as §1

SN-38 = compound: CCc1c2c(nc3ccc(O)cc13)-c1cc3c(c(=O)n1C2)COC(=O)[C@]3(O)CC [SN-38]; details: max 0.3 µM
Procedure, shortened: as §1

Trametinib = compound: CC(=O)Nc1cccc(-n2c(=O)n(C3CC3)c(=O)c3c(Nc4ccc(I)cc4F)n(C)c(=O)c(C)c32)c1 [Trametinib]; details: max 1 µM
Procedure, shortened: as §1

Gemcitabine = compound: Nc1ccn([C@@H]2O[C@H](CO)[C@@H](O)C2(F)F)c(=O)n1 [Gemcitabine]; details: max 0.3 µM
Procedure, shortened: as §1

Taselisib = compound: Cc1nc(-c2cn3c(n2)-c2ccc(-c4cnn(C(C)(C)C(N)=O)c4)cc2OCC3)n(C(C)C)n1 [Taselisib]; details: max 10 µM
Procedure, shortened: as §1

Savolitinib = compound: C[C@@H](c1ccc2nccn2c1)n1nnc2ncc(-c3cnn(C)c3)nc21 [Savolitinib]; details: max 1 µM
Procedure, shortened: as §1

AZD5991 = compound: Cc1c2c(nn1C)CSCc1cc(n(C)n1)CSc1cc(c3ccccc3c1)OCCCc1c(C(=O)O)n(C)c3c-2c(Cl)ccc13 [AZD5991]; details: max 1 µM
Procedure, shortened: as §1

Lapatinib = compound: CS(=O)(=O)CCNCc1ccc(-c2ccc3ncnc(Nc4ccc(OCc5cccc(F)c5)c(Cl)c4)c3c2)o1 [Lapatinib]; details: max 10 µM
Procedure, shortened: as §1

Palbociclib = compound: CC(=O)c1c(C)c2cnc(Nc3ccc(N4CCNCC4)cn3)nc2n(C2CCCC2)c1=O [Palbociclib]; details: max 10 µM
Procedure, shortened: as §1

MK-2206 = compound: NC1(c2ccc(-c3nc4ccn5c(=O)[nH]nc5c4cc3-c3ccccc3)cc2)CCC1 [MK-2206]; details: max 10 µM
Procedure, shortened: as §1

Paclitaxel = compound: CC(=O)O[C@H]1C(=O)[C@@]2(C)[C@H]([C@H](OC(=O)c3ccccc3)[C@]3(O)C[C@H](OC(=O)[C@H](O)[C@@H](NC(=O)c4ccccc4)c4ccccc4)C(C)=C1C3(C)C)[C@]1(OC(C)=O)CO[C@@H]1C[C@@H]2O [Paclitaxel]; details: max 3 µM
Procedure, shortened: as §1

AZD6738 = compound: C[C@@H]1COCCN1C2=NC(=NC(=C2)C3(CC3)[S@](=N)(=O)C)C4=C5C=CNC5=NC=C4 [AZD6738]; details: max 10 µM
Procedure, shortened: as §1

Dasatinib = compound: CC1=C(C(=CC=C1)Cl)NC(=O)C2=CN=C(S2)NC3=CC(=NC(=N3)C)N4CCN(CC4)CCO [Dasatinib]; details: max 2 µM
Procedure, shortened: as §1

Venetoclax = compound: CC1(C)CCC(CN2CCN(c3ccc(C(=O)NS(=O)(=O)c4ccc(NCC5CCOCC5)c([N+](=O)[O-])c4)c(Oc4cnc5[nH]ccc5c4)c3)CC2)=C(c2ccc(Cl)cc2)C1 [Venetoclax]; details: max 1 µM
Procedure, shortened: as §1

[1] = compound: O=C(Nc1ccc2[nH]nc(-c3ccncc3)c2c1)[C@@H]1CCN(CC(=O)N2CCN(c3ccc(-c4ncccn4)cc3)CC2)C1; details: max 5 µM
Procedure, shortened: as §1

Doxorubicin = compound: COc1cccc2c1C(=O)c1c(O)c3c(c(O)c1C2=O)C[C@@](O)(C(=O)CO)C[C@@H]3O[C@H]1C[C@H](N)[C@H](O)[C@H](C)O1 [Doxorubicin]; details: max 1 µM
Procedure, shortened: as §1

Crizotinib = compound: C[C@@H](Oc1cc(-c2cnn(C3CCNCC3)c2)cnc1N)c1c(Cl)ccc(F)c1Cl [Crizotinib]; details: max 10 µM
Procedure, shortened: as §1

AZD1390 = compound: CC(C)n1c(=O)n(C)c2cnc3cc(F)c(-c4ccc(OCCCN5CCCCC5)nc4)cc3c21 [AZD1390]; details: max 0.3 µM
Procedure, shortened: as §1

AZD1775 = compound: C=CCn1c(=O)c2cnc(Nc3ccc(N4CCN(C)CC4)cc3)nc2n1-c1cccc(C(C)(C)O)n1 [AZD1775]; details: max 3 µM
Procedure, shortened: as §1

Selumetinib = compound: Cn1cnc2c(F)c(Nc3ccc(Br)cc3Cl)c(C(=O)NOCCO)cc21 [Selumetinib]; details: max 10 µM
Procedure, shortened: as §1

SG3199 = compound: CC1=CN2[C@@H](C1)C=NC3=CC(=C(C=C3C2=O)OC)OCCCCCOC4=C(C=C5C(=C4)N=C[C@@H]6CC(=CN6C5=O)C)OC [SG3199]; details: max 0.001 µM
Procedure, shortened: as §1

Carboplatin = compound: C1CC(C1)(C(=O)[O-])C(=O)[O-].N.N.[Pt+2] [Carboplatin]; details: max 10 µM
Procedure, shortened: as §1

Alisertib = compound: COc1cc(Nc2ncc3c(n2)-c2ccc(Cl)cc2C(c2c(F)cccc2OC)=NC3)ccc1C(=O)O [Alisertib]; details: max 10 µM
Procedure, shortened: as §1

| Cell Line | IC50, cell viability 72 h (AZD7648) [nM] | IC50, cell viability 72 h (AZD5363) [nM] | IC50, cell viability 72 h (AZD2811) [nM] | IC50, cell viability 72 h (AZD8186) [nM] | IC50, cell viability 72 h (SRA737) [nM] | IC50, cell viability 72 h (AZD0156) [nM] | IC50, cell viability 72 h (AZD5153) [nM] | IC50, cell viability 72 h (AZD4320) [nM] | IC50, cell viability 72 h (Etoposide) [nM] | IC50, cell viability 72 h (Gefitinib) [nM] | IC50, cell viability 72 h (5-Fluorouracil) [nM] | IC50, cell viability 72 h (Prexasertib) [nM] | IC50, cell viability 72 h (Olaparib) [nM] | IC50, cell viability 72 h (SN-38) [nM] | IC50, cell viability 72 h (Trametinib) [nM] | IC50, cell viability 72 h (Gemcitabine) [nM] | IC50, cell viability 72 h (Taselisib) [nM] | IC50, cell viability 72 h (Savolitinib) [nM] | IC50, cell viability 72 h (AZD5991) [nM] | IC50, cell viability 72 h (Lapatinib) [nM] | IC50, cell viability 72 h (Palbociclib) [nM] | IC50, cell viability 72 h (MK-2206) [nM] | IC50, cell viability 72 h (Paclitaxel) [nM] | IC50, cell viability 72 h (AZD6738) [nM] | IC50, cell viability 72 h (Dasatinib) [nM] | IC50, cell viability 72 h (Venetoclax) [nM] | IC50, cell viability 72 h [1] [nM] | IC50, cell viability 72 h (Doxorubicin) [nM] | IC50, cell viability 72 h (Crizotinib) [nM] | IC50, cell viability 72 h (AZD1390) [nM] | IC50, cell viability 72 h (AZD1775) [nM] | IC50, cell viability 72 h (Selumetinib) [nM] | IC50, cell viability 72 h (SG3199) [nM] | IC50, cell viability 72 h (Carboplatin) [nM] | IC50, cell viability 72 h (Alisertib) [nM] |
| --- | --- | --- | --- | --- | --- | --- | --- | --- | --- | --- | --- | --- | --- | --- | --- | --- | --- | --- | --- | --- | --- | --- | --- | --- | --- | --- | --- | --- | --- | --- | --- | --- | --- | --- | --- |
| Hs-578-T (Breast Carcinoma) | > 10000 | 2370 | 435 | 1710 | > 10000 | > 3000 | 156 | > 1000 | > 10000 | > 10000 | > 20000 | 12.3 | > 10000 | > 300 | > 1000 | > 300 | 2190 | > 1000 | > 1000 | > 10000 | > 10000 | 5650 | < 3 | 1810 | 66.8 | > 1000 | > 5000 | 300 | > 10000 | > 300 | 394 | > 10000 | > 1 | > 10000 | 3970 |
| KELLY (Neuroblastoma) | > 10000 | > 10000 | 333 | > 10000 | 199 | > 3000 | > 1000 | > 1000 | 2530 | > 10000 | 12600 | 1.18 | > 10000 | 7.25 | > 1000 | 3.87 | > 10000 | > 1000 | 378 | 7360 | > 10000 | > 10000 | 10.8 | 1530 | > 2000 | 204 | > 5000 | 142 | 1980 | > 300 | 64.5 | > 10000 | > 1 | > 10000 | 237 |
| KURAMOCHI (Ovarian Carcinoma) | > 10000 | > 10000 | > 1000 | > 10000 | 4480 | > 3000 | 140 | > 1000 | > 10000 | > 10000 | > 20000 | 52.8 | > 10000 | 171 | > 1000 | > 300 | > 10000 | > 1000 | > 1000 | > 10000 | > 10000 | > 10000 | 1670 | 6970 | 100 | > 1000 | > 5000 | > 1000 | > 10000 | > 300 | 2440 | > 10000 | > 1 | > 10000 | > 10000 |
| LB831-BLC (Bladder Carcinoma) | > 10000 | > 10000 | > 1000 | > 10000 | > 10000 | > 3000 | > 1000 | > 1000 | > 10000 | > 10000 | > 20000 | > 1000 | > 10000 | 45.8 | > 1000 | 202 | 5820 | > 1000 | > 1000 | > 10000 | > 10000 | > 10000 | 69.1 | > 10000 | > 2000 | > 1000 | > 5000 | 821 | > 10000 | > 300 | 2140 | > 10000 | > 1 | > 10000 | > 10000 |
| LS-180 (Colorectal Carcinoma) | > 10000 | > 10000 | > 1000 | > 10000 | > 10000 | > 3000 | 673 | > 1000 | 1920 | > 10000 | > 20000 | 103 | > 10000 | 21.1 | 74.4 | 11.8 | 2160 | > 1000 | > 1000 | > 10000 | 9720 | > 10000 | 30.5 | 3420 | > 2000 | > 1000 | 2850 | 168 | > 10000 | > 300 | 2030 | 2680 | > 1 | > 10000 | 7410 |
